{"source": "patent US20240122930A1", "about": "“INTEGRIN INHIBITORS AND USES THEREOF IN COMBINATION WITH OTHER AGENTS” (Pliant Therapeutics, Inc., priority 2022, published 2024)", "key": {"[1]": {"system": "participants with idiopathic pulmonary fibrosis (IPF)", "assay": "Phase 2a clinical trial: quantitative ground glass (QGG) score on HRCT", "assay_type": "in vivo, human", "conditions": "for QGG score, Change to Week 12, LS Mean (SE): placebo 0.0 (0.63); for QGG score, Change to Week 24, LS Mean (SE): placebo −0.7 (1.66)"}, "[2]": {"system": "pSmad2/Smad2", "assay": "Alveolar (BAL) pSmad2/Smad2, change from baseline at 24 hours (FIG. 12, prior studies)", "assay_type": "in vivo, human", "conditions": "80 mg and 160 mg, p<0.0001 at both doses", "text": "FIG. 12 through FIG. 33 illustrate various details and results from the clinical trial. […] In FIG. 12, BAL refers to bronchoalveolar lavage; pSmad2/Smad2 refers to ratio of phosphorylated Smad2 to total Smad2; and QD refers to once daily. **** refers to p<0.0001."}, "[3]": {"system": "participants with idiopathic pulmonary fibrosis (IPF)", "assay": "Phase 2a clinical trial: patient-reported cough severity visual analog scale (VAS)", "assay_type": "in vivo, human", "conditions": "320 mg, weeks 12 and 24, ITT; worsening on placebo", "procedure": "Of interest, patients receiving Compound 5 experienced a positive impact on cough severity, while cough severity in patients receiving placebo worsened over time. […] The data histograms from left to right are 320 mg Compound 5 treatment at week 12, 320 mg Compound 5 treatment at week 24, placebo treatment at week 12, and placebo treatment at week 24. […] Cough VAS measured patient reported cough severity over last 2 weeks on scale of 0-100 mm."}, "[4]": {"assay": "αVβ6 target engagement by [18F]FP-R01-MG-F2 PET/CT in participants with IPF", "assay_type": "in vivo, human", "conditions": "human, plasma; Subject C, 320 mg; read-out: Conc (Unbound Plasma Concentration)", "procedure": "The aim of this Example is to assess target engagement of the disclosed compounds to αVβ6 in human participants with IPF using [^18F]FP-R01-MG-F2 PET/computerized tomography (CT) imaging.\nThis Example was conducted as an open-label, single-dose (60 mg, 120 mg, 240 mg or 320 mg) clinical trial evaluating αVβ6 receptor occupancy in the lungs, safety, and pharmacokinetics of Compound #5 in subjects with IPF. To date, 4 participants have completed the study. Each of these 4 participants was undergoing a pre-existing course of therapy using one of the SoC (Standard of Care) compounds, nintedanib. These participants continued their pre-existing nintedanib therapy throughout this study. Knottin tracer uptake kinetics were compared pre- and post-dose of the disclosed compound, as measured by standardized uptake values (SUVs) and parameters estimated from kinetic modeling in regions-of-interest on dynamic [^18F]FP-R01-MG-F2 PET/CT scans. […] Receptor occupancy was estimated from the output of the two-compartment model (VT, the […]) using standard equations and fitting algorithms, and corrections for VND (non-displaceable tracer binding). For example, in FIG. 10, the data points, shown as circles, are modeled by the following formula: […]\nFive subjects with IPF were enrolled: Subject A received a single dose of 60 mg of the disclosed compound followed by a post-dose scan. Subject B received two doses of the disclosed compound separated by two weeks, 120 mg and 240 mg, each followed by a post-dose scan. Subject C received two doses of the disclosed compound separated by two weeks, 240 mg and 320 mg, each followed by a post-dose scan. Subject D received a single dose of 320 mg of the disclosed compound followed by a post-dose scan."}, "[5]": {"system": "COL1A1 expression", "assay": "Precision cut lung slices from human IPF explants, COL1A1 expression", "assay_type": "cell-based", "text": "Explanted lung tissue was obtained from human IPF subjects and inflated with agarose as described in the preceding examples. Biopsy cores were obtained from the agarose-inflated lung tissue. The biopsy cores were subjected to precision slicing to obtain several hundred μm thick. Individual slices were distributed in a multiwell culture plate and cultured for […] under control (DMSO) and test compound conditions. The viability of the slices over the course of culturing was confirmed by WST-1 assay of mitochondrial activity.\nPCLS from 5-7 idiopathic pulmonary fibrosis (IPF) lung tissue samples were cultured for seven days with one of: DMSO; Compound 5 at 200 nM; nintedanib at 75 nM; pirfenidone at 50 μM; a combination of Compound 5 at 200 nM and nintedanib at 75 nM; a combination of Compound 5 at 200 nM and pirfenidone at 50 μM; or an ALK5 inhibitor at 1 μM. […] FIG. 6D is a bar graph showing relative expression of COL1A1 in precision cut lung slices (PCLS) from idiopathic pulmonary fibrosis (IPF) lung tissue upon exposure to Compound 5, clinical standard of care compounds nintedanib (Nin) and pirfenidone (Pirf), and an ALK5 inhibitor, all versus DMSO control.\nPCLS from a single IPF lung tissue sample were cultured for seven days with Compound 5 at concentrations of 200 pM, 2 nM, 60 nM, 200 nM, and 1 μM, along with 0.1% DMSO control and an ALK5 inhibitor at 1 μM. […] COL1A1 expression is also graphed for the PCLS in the presence of 0.1% DMSO control, and an ALK5 inhibitor at 1 μM."}}}
{"compound": "COCCN(CCCCc1ccc2c(n1)NCCC2)CC[C@H](Nc1ncnc2ccccc12)C(=O)O", "note": "[Compound 5, (S)-4-((2-methoxyethyl) (4-(5,6,7,8-tetrahydro-1,8-naphthyridin-2-yl)butyl)amino)-2-(quinazolin-4-ylamino) butanoic acid]", "values": [{"measurement": "QGG score, Change to Week 12, LS Mean Diff (SE) vs. Placebo", "setting": "[1]; 40 mg (n 15)", "result": "1.3 (1.04)"}, {"measurement": "QGG score, Change to Week 12, LS Mean (SE)", "setting": "[1]; 40 mg (n 15)", "result": "1.3 (0.82)"}, {"measurement": "QGG score, Change to Week 12, LS Mean Diff (SE) vs. Placebo", "setting": "[1]; 80 mg (n 18)", "result": "−1.2 (0.98)"}, {"measurement": "QGG score, Change to Week 12, LS Mean (SE)", "setting": "[1]; 80 mg (n 18)", "result": "−1.2 (0.74)"}, {"measurement": "QGG score, Change to Week 12, LS Mean Diff (SE) vs. Placebo", "setting": "[1]; 160 mg (n 14)", "result": "−0.1 (1.05)"}, {"measurement": "QGG score, Change to Week 12, LS Mean (SE)", "setting": "[1]; 160 mg (n 14)", "result": "0.0 (0.84)"}, {"measurement": "QGG score, Change to Week 24, LS Mean Diff (SE) vs. Placebo", "setting": "[1]; 320 mg (n 14)", "result": "−1.2 (1.53)"}, {"measurement": "QGG score, Change to Week 24, LS Mean (SE)", "setting": "[1]; 320 mg (n 14)", "result": "−1.8 (1.31)"}, {"measurement": "QGG score, Change to Week 12, LS Mean Diff (SE) vs. Placebo", "setting": "[1]; 320 mg (n 16)", "result": "−0.2 (1.01)"}, {"measurement": "QGG score, Change to Week 12, LS Mean (SE)", "setting": "[1]; 320 mg (n 16)", "result": "−0.2 (0.79)"}, {"measurement": "QGG score, Change to Week 24, LS Mean Diff (SE) vs. Placebo", "setting": "[1]; All Compound 5 (n 14)", "result": "−1.2 (1.53)"}, {"measurement": "QGG score, Change to Week 24, LS Mean (SE)", "setting": "[1]; All Compound 5 (n 14)", "result": "−1.8 (1.31)"}, {"measurement": "QGG score, Change to Week 12, LS Mean Diff (SE) vs. Placebo", "setting": "[1]; All Compound 5 (n 63)", "result": "−0.1 (0.76)"}, {"measurement": "QGG score, Change to Week 12, LS Mean (SE)", "setting": "[1]; All Compound 5 (n 63)", "result": "−0.1 (0.40)"}, {"measurement": "Ground glass scores over a 12-24 week period after treatment", "setting": "[1]; instant study", "result": "decreased or remained stable"}, {"measurement": "Alveolar pSmad2/Smad2, Percentage Change from Baseline at 24 Hours vs. placebo", "setting": "[2]", "result": "statistically significant"}, {"measurement": "Patient-reported cough severity (VAS), change from baseline", "setting": "[3]", "result": "reduced"}, {"measurement": "concentration at 4 h", "setting": "[4]", "result": 98.5, "unit": "nM"}, {"measurement": "reduction of COL1A1 expression", "setting": "[5]; human IPF PCLS (5-7 tissues), 7 days, Compound 5 at 200 nM alone", "result": 43, "unit": "%"}, {"measurement": "lung Col1a1 expression, normalized to DMSO control slices", "setting": "[5]; human IPF PCLS, 3 days, 3G9 ≥400 ng/mL, Compound 5 179 nM, ALK5 inhibitor 1 μM", "result": "substantial, statistically significant (p<0.01 vs vehicle) decrease"}, {"measurement": "COL1A1 expression, dose response", "setting": "[5]; human IPF PCLS, 7 days, 200 pM to 1 μM", "result": "dose dependent reduction"}, {"measurement": "reduction of COL1A1 expression", "setting": "[5]; human IPF PCLS, 7 days, Compound 5 at 200 nM in combination with nintedanib at 75 nM", "result": 55, "unit": "%"}, {"measurement": "reduction of COL1A1 expression", "setting": "[5]; human IPF PCLS, 7 days, Compound 5 at 200 nM in combination with pirfenidone at 50 μM", "result": 49, "unit": "%"}]}
